According to PMC6862080, “Blood Compatibility—An Important but Often Forgotten Aspect of the Characterization of Antimicrobial Peptides for Clinical Application” (International Journal of Molecular Sciences, 2019):
Peptide text beside a SMILES is read from it. * marks the point of attachment. Myristoyl = CCCCCCCCCCCCCC(=O)*; Lauroyl = CCCCCCCCCCCC(=O)*; Decanoyl = CCCCCCCCCC(=O)*; Octanoyl = CCCCCCCC(=O)*

Legend:
E. coli (ATCC 11303) = assay: microbe, parasite or virus in culture; assay type: cell-based; details: ATCC 11303, pH 7.4
erythrocyte membranes [1] = assay: Hemolysis in RBC suspended in PBS (Kahn method); assay type: cell-based, human; details: pH 7.4
Protocol: (§1) Hemolysis was tested with fresh citrate anticoagulated blood from healthy volunteers as well as with blood cells which were suspended in phosphate buffered saline (10 mM pH 7.4). Afterwards, 100 μL AMP solution was added to 500 μL blood to finally achieve AMP concentrations of 8, 32, and 128 μg/mL. As the negative and positive control, 100 μL PBS buffer and 100 μL 12% Triton-X buffer was added to 500 μL blood, respectively. After incubation on an orbital shaker for 60 min at 37 °C, the cells were removed by centrifugation and 100 μL of the supernatant were transferred to a 96 well microplate for hemolysis measurement. The hemolysis was calculated from the extinction at the wavelengths 562, 578, and 598 nm with a Synergy 2 microplate reader (BioTek, Winooski, VT, USA) according to the method published by Kahn.

plasmatic coagulation = assay: Clotting batch test in citrate plasma; assay type: biochemical, human
Protocol: Since the acylated LF11-322 peptides cause plasmatic coagulation of citrate anticoagulated plasma, separate clotting experiments were performed with this peptide group. The aim was to check whether the coagulation activation is dependent on the AMP concentration and on the acyl chain length. […] Plasma without additives served as the negative control, whereas plasma spiked with CaCl2/MgCl2 (500/250 mM) solution to restore the physiological calcium and magnesium level in plasma was used as the positive control. Incubation was performed at 37 °C for 60 min. […] In order to ensure that the measured turbidity of the plasma is caused by fibrin formation, the fibrinogen and D-Dimer concentrations were additionally determined. During plasmatic clotting, the fibrinogen level decreases and the D-Dimer level in serum increases. Both were analyzed on a Sysmex CA560 with the corresponding reagents (Siemens Healthineers, Erlangen, Germany).

S. aureus (ATCC 12600) = assay: microbe, parasite or virus in culture; assay type: cell-based; details: ATCC 12600, pH 7.4
erythrocyte membranes [2] = assay: Hemolysis in whole blood (Kahn method); assay type: cell-based, human
Protocol: as §1

LPS from P. aeruginosa = assay: Endotoxin inactivation in human serum, chromogenic LAL test (P. aeruginosa LPS); assay type: biochemical; details: 500 ng/mL peptide, n = 3; for Reduction of the endotoxin activity in serum vs positive control (in words): 5 ng/mL P. aeruginosa LPS
Protocol: The LPS neutralization study in serum was conducted using a chromogenic Limulus Amebocyte Lysate (LAL) test (Charles River Laboratories, MA, USA). The LAL test is the most established method for quantifying LPS. This method uses amebocyte lysate from Limulus polyphemus, wherein the presence of LPS triggers a defense mechanism that induces coagulation. The LAL test is used successfully for detection of LPS in a wide variety of industrial, pharmaceutical, and research applications, such as water supplies, parenteral fluids, drugs for intravenous administration, and certain biologic fluids (e.g., cerebrospinal fluid). Therefore, serum, which was obtained from freshly drawn blood, was spiked with 500 ng/mL AMPs, PMB or LL-37 before adding 5 ng/mL LPS from E. coli or P. aeruginosa. As positive and negative controls, native serum with and without LPS was used, respectively. Endotoxin activity was measured using the LAL assay according to the manufacturer’s specifications.

platelets [3] = assay: Platelet activation, platelet count in heparin anticoagulated PRP; assay type: cell-based, human; details: 128 μg/mL, 2 h, 37 °C, Sysmex analyzer, n = 3
Protocol: (§2) Since it was observed that some AMPs are able to activate the plasmatic coagulation system of heparinized and citrate anticoagulated blood, the influence of this peptides on platelets was investigated. For this purpose, fresh heparinized and citrated blood were collected from three donors. The blood was centrifuged at 500 g for 5 min and platelet rich plasma (PRP) was obtained. The PRP was incubated at 37 °C for 2 h with 128 μg/mL AMP, PMB, and LL-37. PRP without any additives served as the control. After incubation, the platelet number was determined by a Sysmex Automated Hematology Analyzer KX-21-N (Kobe, Japan). In addition, the PRP samples were prepared for SEM to visualize the morphology of the thrombocytes. After incubation, 10 μL PRP were diluted with 990 μL PBS (0.01 M) and filtered through a 0.2 μm membrane (Membrane Filter Isopore 0.2 μm, Merck, Darmstadt, Germany). The platelets were retained on the membrane, washed with 1 mL PBS, and fixed with 1 mL glutaraldehyde solution (2.5% glutaraldehyde in physiological saline solution). After an incubation time of 60 min, the samples were dehydrated using a series of ethanol (30%, 50%, 60%, 70%, 80%, 90%, and 100%). Afterwards the samples were dried overnight at RT, sputtered with gold and visualized with a scanning electron microscope (FLEXSem 1000, Hitachi, Japan).

platelets [4] = assay: Platelet activation, platelet count in citrate anticoagulated PRP; assay type: cell-based, human; details: 128 μg/mL, 2 h, 37 °C, Sysmex analyzer, n = 3
Protocol: as §2

human leukocytes = assay: Cytotoxicity on leukocytes in whole blood, flow cytometry (7-AAD); assay type: cell-based; details: whole blood, 128 μg/mL, flow cytometry, n = 3
Protocol: The measurement of the membrane destabilization of leukocytes by AMPs was carried out by flow cytometry. […] Whole blood without AMPs or antibiotics was used as a control. After incubation, the proportion of apoptotic and dead cells was determined by flow cytometry. To achieve this, blood samples were diluted 1:100 with 0.01 M phosphate buffered saline and centrifuged at 300 g for 10 min. The supernatant was removed, and cells were stained with 10 μL CD45 pacific blue (leukocyte marker; Beckman coulter, Brea, CA) and 10 μL 7-AAD (a marker for dead cells; Sigma-Aldrich, Steinheim, Germany) for 15 min at room temperature in the dark. After incubation, 1.8 mL lysis buffer (1:10 dilution in distilled water) was added, mixed, and incubated for 10 min at room temperature in the dark. This was followed by two washing steps (2300 g, 5 min, room temperature) and the cells were resuspended in a final volume of 200 μL 0.01 M PBS for measurement. Flow cytometry was performed using a Gallios flow cytometer (Beckman Coulter, Brea, CA, USA) equipped with 405 nm, 488 nm, and 638 nm lasers and the Kaluza Analysis Software (Beckman Coulter, Brea, CA, USA), which was used for measurement and data analysis. Blood cells which were incubated in 70% methanol before staining served as the positive control and blood cells without any additives were used as the negative control.

platelets [5] = assay: SEM imaging of platelet morphology in PRP; assay type: cell-based, human; details: 128 μg/mL, 2 h, 37 °C
Protocol: as §2

| Compound | Minimal Inhibitory Concentration, E. coli, PBS (E. coli (ATCC 11303)) [µg/mL] | Free Hemoglobin, RBC in PBS, 8 μg/mL (erythrocyte membranes [1]) [mg/dL] | Free Hemoglobin, RBC in PBS, 32 μg/mL (erythrocyte membranes [1]) [mg/dL] | Peptide concentration that triggers clotting of citrate plasma (plasmatic coagulation) [µg/mL] | Minimal Inhibitory Concentration, S. aureus, PBS (S. aureus (ATCC 12600)) [µg/mL] | Free Hemoglobin, BLOOD, 8 μg/mL (erythrocyte membranes [2]) [mg/dL] | Free Hemoglobin, BLOOD, 32 μg/mL (erythrocyte membranes [2]) [mg/dL] | Free Hemoglobin, BLOOD, 128 μg/mL (erythrocyte membranes [2]) [mg/dL] | Reduction of endotoxin activity of P. aeruginosa LPS (LPS from P. aeruginosa; 5 ng/mL LPS) [%] | Reduction of the endotoxin activity in serum vs positive control (in words) (LPS from P. aeruginosa) | Platelet count in heparinized PRP vs control (in words) (platelets [3]) | Platelet count in citrate anticoagulated PRP vs control (in words) (platelets [4]) | Cytotoxic effect on leukocytes in whole blood (in words) (human leukocytes) | Platelet morphology by SEM, citrate anticoagulated PRP (in words) (platelets [5]) |
| --- | --- | --- | --- | --- | --- | --- | --- | --- | --- | --- | --- | --- | --- | --- |
| CCCCCCCC(=O)N1CCC[C@H]1C(=O)N[C@@H](Cc1ccccc1)C(=O)N[C@@H](Cc1c[nH]c2ccccc12)C(=O)N[C@@H](CCCNC(=N)N)C(=O)N[C@H](C(=O)N[C@@H](CCCNC(=N)N)C(=O)N[C@H](C(=O)N[C@@H](CCCNC(=N)N)C(=O)N[C@@H](CCCNC(=N)N)C(N)=O)[C@@H](C)CC)[C@@H](C)CC [LF11-322-C8] (Octanoyl-PFWRIRIRR-NH2) | 8 | 12.9 ± 1.5 | 26.1 ± 2.5 | ≥ 256 | 8 | 2.2 ± 0.5 | 9.0 ± 3.8 | 2.7 ± 3.7 |  |  |  |  |  |  |
| CCCCCCCCCCCCCC(=O)N[C@@H](Cc1ccccc1)C(=O)N[C@@H](Cc1c[nH]c2ccccc12)C(=O)N[C@@H](CCCNC(=N)N)C(=O)N[C@@H](CCCNC(=N)N)C(=O)N[C@@H](Cc1ccccc1)C(=O)N[C@@H](Cc1c[nH]c2ccccc12)C(=O)N[C@@H](CCCNC(=N)N)C(=O)N[C@@H](CCCNC(=N)N)C(N)=O [LF11-227-C14] (Myristoyl-FWRRFWRR-NH2) | > 128 | 18.3 ± 12.8 | 41.9 ± 19.9 |  | > 128 | 3.4 ± 2.1 | 3.1 ± 0.9 | 2.6 ± 3.5 | 37 ± 5 | significant (p < 0.05) reduction |  |  |  |  |
| CCCCCCCCCC(=O)N[C@@H](Cc1ccccc1)C(=O)N[C@@H](Cc1c[nH]c2ccccc12)C(=O)N[C@@H](CCCNC(=N)N)C(=O)N[C@@H](CCCNC(=N)N)C(=O)N[C@@H](Cc1ccccc1)C(=O)N[C@@H](Cc1c[nH]c2ccccc12)C(=O)N[C@@H](CCCNC(=N)N)C(=O)N[C@@H](CCCNC(=N)N)C(N)=O [LF11-227-C10] (Decanoyl-FWRRFWRR-NH2) | > 128 | 18.0 ± 6.7 | 45.1 ± 20.5 |  | > 128 | 2.3 ± 0.6 | 4.2 ± 1.4 | 2.7 ± 4.2 |  |  |  |  |  |  |
| CCCCCCCCCC(=O)N1CCC[C@H]1C(=O)N[C@@H](Cc1ccccc1)C(=O)N[C@@H](Cc1c[nH]c2ccccc12)C(=O)N[C@@H](CCCNC(=N)N)C(=O)N[C@H](C(=O)N[C@@H](CCCNC(=N)N)C(=O)N[C@H](C(=O)N[C@@H](CCCNC(=N)N)C(=O)N[C@@H](CCCNC(=N)N)C(N)=O)[C@@H](C)CC)[C@@H](C)CC [LF11-322-C10] (Decanoyl-PFWRIRIRR-NH2) | 8 | 16.6 ± 2.4 | 48.5 ± 5.5 |  | 8 | 2.5 ± 2.0 | 6.0 ± 4.6 | 3.0 ± 4.5 |  |  |  |  |  |  |
| CCCCCCCCCCCC(=O)N1CCC[C@H]1C(=O)N[C@@H](Cc1ccccc1)C(=O)N[C@@H](Cc1c[nH]c2ccccc12)C(=O)N[C@@H](CCCNC(=N)N)C(=O)N[C@H](C(=O)N[C@@H](CCCNC(=N)N)C(=O)N[C@H](C(=O)N[C@@H](CCCNC(=N)N)C(=O)N[C@@H](CCCNC(=N)N)C(N)=O)[C@@H](C)CC)[C@@H](C)CC [LF11-322-C12] (Lauroyl-PFWRIRIRR-NH2) | 32 | 15.5 ± 1.2 | 36.1 ± 2.0 |  | 16 | 2.4 ± 2.6 | 8.6 ± 8.6 | 3.2 ± 4.5 |  |  | no significant difference in platelet count | significantly reduce the platelet count |  |  |
| H-PFWRIRIRR-NH2 [LF11-322-NH2] | 4 | 10.4 ± 2.4 | 14.2 ± 3.5 |  | 4 | 5.0 ± 5.3 | 5.9 ± 4.4 | 2.6 ± 3.7 |  |  |  |  | no cytotoxic properties on leukocytes | strongly change their shape |
| CCCCCCCC(=O)N[C@@H](Cc1ccccc1)C(=O)N[C@@H](Cc1c[nH]c2ccccc12)C(=O)N[C@@H](CCCNC(=N)N)C(=O)N[C@@H](CCCNC(=N)N)C(=O)N[C@@H](Cc1ccccc1)C(=O)N[C@@H](Cc1c[nH]c2ccccc12)C(=O)N[C@@H](CCCNC(=N)N)C(=O)N[C@@H](CCCNC(=N)N)C(N)=O [LF11-227-C8] (Octanoyl-FWRRFWRR-NH2) | > 128 | 13.0 ± 0.7 | 15.9 ± 2.6 |  | > 128 | 3.6 ± 2.8 | 10.5 ± 13.5 | 2.3 ± 3.7 |  |  |  |  |  |  |
| CCCCCCCCCCCC(=O)N[C@@H](Cc1ccccc1)C(=O)N[C@@H](Cc1c[nH]c2ccccc12)C(=O)N[C@@H](CCCNC(=N)N)C(=O)N[C@@H](CCCNC(=N)N)C(=O)N[C@@H](Cc1ccccc1)C(=O)N[C@@H](Cc1c[nH]c2ccccc12)C(=O)N[C@@H](CCCNC(=N)N)C(=O)N[C@@H](CCCNC(=N)N)C(N)=O [LF11-227-C12] (Lauroyl-FWRRFWRR-NH2) | > 128 | 11.6 ± 3.2 | 26.3 ± 12.3 |  | > 128 | 2.6 ± 1.4 | 4.3 ± 2.5 | 2.5 ± 3.6 |  | significant (p < 0.05) reduction |  |  |  |  |
| H-FWRRFWRR-NH2 [LF11-227-NH2] | 8 | 10.0 ± 2.2 | 14.6 ± 3.2 |  | 8 | 2.4 ± 3.1 | 9.5 ± 12.3 | 2.5 ± 3.8 |  |  |  |  |  |  |
